Assay results from patent US20160368992A1, “A METHOD OF INCREASING GIPCR SIGNALIZATION IN THE CELLS OF A SCOLIOTIC SUBJECT” (CHU SAINTE-JUSTINE, priority 2013, published 2016).

Assays:
GiPCR signaling [1] = test: CDS (CellKey) functional evaluation of Gi protein-mediated receptor signaling in primary mouse osteoblasts; assay type: cell-based, mice; details: osteoblasts from bipedal CD44 knockout (CD44-/-) mice
GiPCR signaling [2] = test: CDS integrated response to GiPCR ligands in MC3T3-E1 osteoblastic cell line; assay type: cell-based; details: MC3T3-E1 cells treated with rOPN prior to stimulation
Procedure: The functional evaluation of Gi, Gs and Gq proteins was assessed by CDS assays using osteoblasts cells derived from C57Bl/6j WT and C57Bl/6j OPN^−/− mice (bipedal and quadrupedal) using CellKey™ apparatus, as previously described (Akoume et al., 2010, and WO 2010/040234 to Moreau et al.).
MC3T3-E1 cells were used to check the effect of the knockdown of OPN and its receptors. MC3T3-E1 osteoblasts cells were transiently transfected in serum-free medium, using Lipofectamine™ RNAiMAX reagent (Invitrogen) according to the manufacturer's instructions and functional experiments were performed 48 h post transfection. The sequence of RNA oligonucleotides used for the knockdown of different genes are, ssp1 (encodes OPN) (CCACAGCCACAAGCAGUCCAGAUUA (SEQ ID NO: 9)), integrin β1 (CCUAAGUCAGCAGUAGGAACAUUAU (SEQ ID NO: 10)), integrin β3 (CCUCCAGCUCAUUGUUGAUGCUUAU (SEQ ID NO: 11)), integrin α5 (CCGAGUACCUGAUCAACCUGGUUCA (SEQ ID NO: 12)), integrin α8 (GAGAUGAAACUGAAUUCCGAGAUAA (SEQ ID NO: 13)), integrin αv (GACUGUUGAGUAUGCUCCAUGUAGA (SEQ ID NO: 14 and CD44 (GAACAAGGAGUCGUCAGAAACUCCA (SEQ ID NO: 15)). Two other siRNAs against integrin α5 were tested (UCCACCAUGUCUAUGAGCUCAUCAA (SEQ ID NO:16) and UCAGGAGCAGAUUGCAGAAUCUUAU (SEQ ID NO:17)).
To further investigate the role of OPN in Gi protein-mediated receptor signaling, several lines of experiments were performed using MC3T3-E1 osteoblastic cell line. Since these cells express OPN, was first examined whether depletion of OPN by siRNA influences the capacity of GiPCR ligands to induce cell signaling as measured by CDS in MC3T3-E1 cells. […] Similar results were obtained when cells were stimulated with oxymethazolin. […] To confirm this hypothesis, cells were treated with exogenous recombinant OPN (rOPN) prior to DAMGO and oxymethazolin stimulation.

Gi1, Gi2, Gi3 proteins = test: Immunoprecipitation/Western blot: phosphorylation of Gi proteins in MC3T3-E1 cells; assay type: cell-based; details: rOPN vs PBS
Procedure: Given that the defective GiPCR signaling associated with idiopathic scoliosis has causatively been related to increased phosphorylation of Gi proteins (Moreau et al., 2004), it was of interest to examined whether OPN influences the phosphorylation status of Gi proteins. Accordingly, MC3T3-E1 cells were treated with rOPN, then cell lysates were immunoprecipitated with antibodies against Gi1, Gi2 or Gi3 protein isoforms, and the phosphorylation level was examined by Western blot using anti-phospho serine/threonine or anti-tyrosine antibodies. […] However, band density was higher in OPN-treated cells.
To support the involvement of α5β1 integrin in this process, cells were pre-treated with antibody against α5β1 integrin prior to rOPN treatment.
Cell extracts prepared from MC3T3-E1 that had been treated with rOPN in the presence or absence of an inhibitor specific for each kinase were subjected to immunoprecipitation and Western blot analysis. […] However, both serine and tyrosine phosphorylation were attenuated by inhibitors of FAK (FAK inhibitor-14), Scr (PP2), CaMKII (KN93), PI3K (wortmannin-data not shown), MEK (PD98059), ERK1/2 (FR180204), JNK (SP60125) and P38 (SB203580).

GsPCR signaling = test: CDS response to GsPCR stimulation (isoproterenol, desmopressin) in MC3T3-E1 cells; assay type: cell-based
Description: (§1) Taken into account these considerations and having observed that genetic deletion of OPN inversely influenced response to Gi and Gs stimulation (FIG. 1), it was of interest to examine the effect of OPN on the functional and phosphorylation status of Gs protein and on its interaction with receptors. For this purpose, cells were subjected to isoproterenol and desmopressin in the presence of rOPN or PBS. As expected, response to isoproterenol was higher in rOPN than in PBS-treated cells.
Assuming that inhibition of Gi protein and phosphorylation of Gs protein are responsible for the increased GsPCR signaling associated with rOPN, the next experiments aimed to determine the contribution of each parameter. For this purpose, cells were treated with PTX to mimic disruption action of rOPN and compared to cells treated with rOPN alone or in combination with Src inhibitor (PP2) to prevent tyrosine phosphorylation. […] This modest difference was abolished by Src inhibitor (PP2). Similar observations were noted when cells were stimulated with desmopressin.

Gs protein = test: Immunoprecipitation/Western blot: Gs protein tyrosine phosphorylation and association with receptors in MC3T3-E1 cells; assay type: cell-based
Description: as §1

GiPCR signaling [3] = test: GiPCR signaling after LPA stimulation in osteoblasts of AIS patients (CD44 CT SNP) and healthy controls in the presence of rOPN; assay type: cell-based, human; details: same rOPN treatment
Procedure: Next, the effect of the CT SNP on GiPCR signaling was assessed. Osteoblasts from severe AIS patients (who underwent surgery) carrying the CT SNP and osteoblasts from healthy controls with wild type CD44 (CC) were stimulated with LPA in the presence of recombinant OPN (rOPN). The GiPCR defective signaling effect in response to the same rOPN treatment was […] 50% more in mutated CD44 (CT) osteoblasts as compared to in wild type CD44 (CC) osteoblasts (FIG. 9 A). […] The CT mutation in CD44 thus increases the sensitivity of scoliotic patients to the damaging effects of OPN on GiPCR signaling and thereby contributes the more severe phenotype observed in these subjects.

With “rOPN: exogenous recombinant osteopontin (R&D systems)” the “response to DAMGO and oxymethazolin after rOPN treatment” value (GiPCR signaling [1]) was “concentration-dependent decrease in response”, the “integrated response to DAMGO and oxymethazolin after rOPN treatment” value (GiPCR signaling [2]) was “decrease in the integrated response in a concentration-dependent manner” and the “phosphorylated serine and tyrosine residues in Gi precipitates (band density)” value (Gi1, Gi2, Gi3 proteins) was “higher”. The “response to isoproterenol (similar with desmopressin)” value (GsPCR signaling; rOPN vs PBS-treated cells) was “higher”, the “greater responsiveness to isoproterenol stimulation than PTX-treated cells” value (GsPCR signaling; rOPN-treated vs PTX-treated cells) was 30% and the “presence of Gs proteins in the immunoprecipitates of MT2 and MO receptors” value (Gs protein; rOPN treatment) was “enhances”. The “Gs protein immunoprecipitates probed with anti-tyrosine antibody” value (Gs protein; rOPN-treated vs PBS-treated cells) was “higher intensity” and the “additional reduction of GiPCR signaling in mutated CD44 (CT) vs wild type CD44 (CC) osteoblasts” value (GiPCR signaling [3]) was 50%.
